The supplement of paper PMC10307832

Tests used:
Test in all cases: relative viability (nuclei count vs DMSO), 5 days (fraction); higher = more cells survive
[1] = compound: C1CC2=C(C1)C=C(C=C2)OC3=NC(=C4C(=N3)N(C=N4)CC5=CC=C(C=C5)C6=CC=CC=C6)N[C@@H](CC7=CC=CC=C7)CO [QS11] + O=C(c1cc(Cc2n[nH]c(=O)c3ccccc23)ccc1F)N1CCN(C(=O)C2CC2)CC1 [Olaparib] (partner 8 µM)
Procedure, shortened: (§1)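 Relative viability divides the nuclei count in treated wells by that in vehicle wells. Lung cancer cell lines were seeded in 1536-well plates, dosed by pin tool the next day, and fixed and stained after 5 days in one step with final 0.05% Triton X-100, 1% formaldehyde and 1 ug/ml Hoechst. Dosing was a single drug or a fixed anchor-drug dose plus five library-drug doses (not always all listed) in √10 steps, and values are medians of duplicate plates imaged at 4×.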

[2] = compound: CC1=C(C=C(C=C1)NC(=O)C2=CC(=CC=C2)C(C)(C)C#N)NC3=CC4=C(C=C3)N=CN(C4=O)C [AZ628] + COc1cc2c(Oc3ccc(NC(=O)C4(C(=O)Nc5ccc(F)cc5)CC4)cc3F)ccnc2cc1OCCCN1CCOCC1 [Foretinib] (partner 0.25 µM)
Procedure, shortened: as §1

[3] = compound: CC1=C(C=C(C=C1)NC(=O)C2=CC(=CC=C2)C(C)(C)C#N)NC3=CC4=C(C=C3)N=CN(C4=O)C [AZ628] + CC(=O)c1c(C)c2cnc(Nc3ccc(N4CCNCC4)cn3)nc2n(C2CCCC2)c1=O [Palbociclib] (partner 0.5 µM)
Procedure, shortened: as §1

[4] = compound: C[As](C)SC[C@H](NC(=O)CC[C@H](N)C(=O)O)C(=O)NCC(=O)O [Darinaparsin] + Nc1ncn([C@H]2C[C@H](O)[C@@H](CO)O2)c(=O)n1 [Decitabine] (partner 2 µM)
Procedure, shortened: as §1

| Cell Line | relative viability ([1]; first compound 0.253 µM) | relative viability ([1]; first compound 0.8 µM) | relative viability ([1]; first compound 2.53 µM) | relative viability ([1]; first compound 8 µM) | relative viability ([2]; first compound 0.08 µM) | relative viability ([2]; first compound 0.253 µM) | relative viability ([2]; first compound 0.8 µM) | relative viability ([2]; first compound 2.53 µM) | relative viability ([2]; first compound 8 µM) | relative viability ([3]; first compound 0.08 µM) | relative viability ([3]; first compound 0.253 µM) | relative viability ([3]; first compound 0.8 µM) | relative viability ([3]; first compound 2.53 µM) | relative viability ([3]; first compound 8 µM) | relative viability ([4]; first compound 0.08 µM) | relative viability ([4]; first compound 0.8 µM) | relative viability ([4]; first compound 2.53 µM) | relative viability ([4]; first compound 8 µM) | relative viability ([1]; first compound 0.08 µM) |
| --- | --- | --- | --- | --- | --- | --- | --- | --- | --- | --- | --- | --- | --- | --- | --- | --- | --- | --- | --- |
| PC-3 [JPC-3] | 1.17 | 1.15 | 1.24 | 1.22 | 1.01 | 1.07 | 1.05 | 1.03 | 0.92 | 0.505 | 0.583 | 0.583 | 0.597 | 0.6 | 0.748 | 0.773 | 0.847 | 0.796 |  |
| NCI-H1395 | 0.463 | 0.446 | 0.468 | 0.472 | 0.996 | 0.967 | 0.974 | 1 | 0.939 | 0.614 | 0.612 | 0.622 | 0.609 | 0.631 | 0.79 | 0.659 | 0.727 | 0.645 | 0.464 |
| NCI-H1944 | 0.482 |  | 0.397 | 0.394 | 0.943 | 0.842 | 0.69 | 0.757 | 0.604 | 0.359 | 0.312 | 0.305 | 0.311 | 0.229 | 0.437 | 0.466 | 0.452 | 0.442 | 0.395 |
| NCI-H322M | 0.947 | 0.802 | 0.846 | 1.06 | 1.05 | 0.985 | 0.952 | 1.02 | 0.829 | 0.513 | 0.519 | 0.466 | 0.505 | 0.449 | 0.704 | 0.686 | 0.577 | 0.724 | 0.715 |
| LCLC-103H | 0.849 |  | 0.791 | 0.814 | 0.724 | 0.753 | 0.802 | 0.729 | 0.853 | 0.478 | 0.48 | 0.44 | 0.314 | 0.417 | 0.788 | 0.722 | 0.715 | 0.8 | 0.799 |
| SK-MES-1 | 0.677 | 0.717 | 0.75 | 0.804 | 0.837 | 0.894 | 0.801 | 0.771 | 0.846 | 0.361 | 0.343 | 0.246 | 0.324 | 0.328 | 0.358 | 0.357 | 0.34 | 0.388 | 0.672 |
| A-427 | 0.67 |  | 0.656 | 0.559 | 0.996 | 0.872 | 0.542 | 0.643 | 0.34 | 0.475 | 0.446 | 0.497 | 0.475 | 0.427 | 0.569 | 0.517 | 0.581 | 0.493 | 0.756 |
| NCI-H1355 | 0.732 | 0.693 | 0.678 | 0.75 | 0.976 | 0.937 | 1.03 | 1.02 | 0.871 | 0.411 | 0.397 | 0.388 | 0.373 | 0.294 | 0.38 | 0.357 | 0.304 | 0.369 | 0.624 |
| NCI-H2170 | 0.632 | 0.539 | 0.596 | 0.722 | 0.992 | 1.07 | 1.03 | 1.07 | 0.913 | 0.413 | 0.349 | 0.381 | 0.418 | 0.424 | 0.488 | 0.502 | 0.544 | 0.458 | 0.549 |
| NCI-H1793 | 0.837 | 0.827 | 0.847 | 1.06 | 0.669 | 0.83 | 0.787 | 0.487 | 0.384 | 0.35 | 0.403 | 0.305 | 0.266 | 0.255 | 0.461 | 0.483 |  | 0.485 | 0.979 |
| NCI-H2023 | 0.556 | 0.398 | 0.514 | 0.439 | 0.886 | 0.824 | 0.826 | 0.724 | 0.607 | 0.45 | 0.381 | 0.239 | 0.406 | 0.153 | 0.219 | 0.219 | 0.196 | 0.216 | 0.414 |
| NCI-H520 | 0.304 | 0.394 | 0.313 | 0.301 | 0.834 | 0.7 | 0.76 | 0.802 | 0.631 | 0.21 | 0.224 | 0.197 | 0.254 | 0.199 | 0.528 | 0.55 | 0.472 | 0.552 | 0.347 |
| NCI-H2087 | 0.743 | 0.553 | 0.623 | 0.644 | 0.839 | 0.821 | 0.727 | 0.78 | 0.256 | 0.194 | 0.157 | 0.165 | 0.149 | 0.173 | 0.322 | 0.286 | 0.28 | 0.282 | 0.743 |
| NCI-H2342 | 0.395 | 0.494 | 0.479 | 0.441 | 1.08 | 1.01 | 1.16 | 1.24 | 1.12 | 0.544 | 0.513 | 0.562 | 0.511 | 0.537 | 0.712 | 0.688 | 0.76 | 0.702 | 0.352 |
| NCI-H2009 | 0.816 | 0.679 | 0.613 | 0.49 | 1.02 | 0.861 | 0.704 | 0.573 | 0.355 | 0.201 | 0.177 | 0.141 | 0.125 | 0.174 | 0.412 | 0.354 | 0.375 | 0.398 | 0.596 |
| NCI-H1993 | 1.01 | 1.22 | 1.35 | 1.05 | 1.05 | 0.68 | 0.714 | 0.715 | 0.667 | 0.685 | 0.548 | 0.496 | 0.595 | 0.266 | 0.626 | 0.584 | 0.608 | 0.586 | 1.06 |
| COR-L23 | 0.322 | 0.303 | 0.271 | 0.288 | 1.02 | 1 | 0.949 | 1.08 | 0.625 | 0.327 | 0.293 | 0.257 | 0.268 | 0.187 | 0.496 | 0.394 | 0.348 | 0.496 | 0.302 |
